Test results: paper PMC10132233 (Journal of Enzyme Inhibition and Medicinal Chemistry, 2023)

Legend:
[1] = target: EGFR (Homo sapiens, UniProt P00533); assay: HotSpot kinase assay over EGFR (Reaction Biology)
[2] = target: T1, c-mesenchymal-epithelial transition factor (c-MET) (Homo sapiens, UniProt P08581); assay: Small kinase panel, c-MET; type: biochemical; conditions: read-out: % kinase inhibition (relative to DMSO control) c-MET
T1 construct: purchased Reaction Biology Co. (Malvern, PA)
Description: (§1) Enzyme inhibitory assays were carried out as described in our previous reports in the literature. […] The HotSpot assay platform includes specific kinase/substrate pairs and required cofactors. The base reaction buffer consisted of 20 mM Hepes (pH 7.5), 10 mM MgCl2, 1 mM EGTA, 0.02% Brij35, 0.02 mg/mL BSA, 0.1 mM Na3VO4, 2 mM DTT, and 1% DMSO. The tested compounds were dissolved in 100% DMSO to a specific concentration, and serial dilution was conducted. The reaction mixture containing the tested compound and 33P-ATP was incubated at room temperature for 2 h, and radioactivity was detected using the filter-binding method.

[3] = tested on: PC3 cells; assay: Apoptosis analysis (Annexin V-PE/DAPI), PC3; type: cell-based, human; conditions: PC3, compound at its IC50, 24 h
Description: (§2) The control PC3 and 22RV1 cells and compound-treated cells were stained with PE-Annexin V and DAPI for a more appropriate cell death examination, and the cellular fluorescence analysis was then performed using ADAMII LS (Figures 4–6). Apoptosis is a type of programmed cell death that can be detected using Annexin V and the DAPI reagent. On plasma membranes, annexin V binds to […] and DAPI can bind to DNA in cells. The dot plot and image data detect early and late apoptotic cells using these two fluorophores. […] Moreover, compound 9f-treated PC3 cells went through early apoptosis (6.27%), and late apoptosis phase (16.94%) (Figures 4(D) and 6). Likewise, the fluorescence images for 22RV1 (Figure 5) and PC3 (Figure 6) cells complement the dot plot data, as higher fluorescence of DAPI and RF images clearly distinguished compound 9f-treated cells from control. […]
(§3) Annexin V conjugated to fluorochromes (PE) retains its high affinity for phosphatidylserine (PS), making it a sensitive probe for flow cytometric analysis of apoptotic cells. […] When apoptosis is measured over time, cells can often be tracked from PE Annexin V and DAPI negative (viable, or no measurable apoptosis), to PE Annexin V positive and DAPI negative (early apoptosis), and finally to PE Annexin V and DAPI positive (end stage apoptosis and death). […]

[4] = target: T2, p38α mitogen-activated protein kinase (MAPK14) (Homo sapiens, UniProt Q16539); assay: Small kinase panel, MAPK14; type: biochemical; conditions: read-out: % kinase inhibition (relative to DMSO control) MAPK14
T2 construct: purchased Reaction Biology Co. (Malvern, PA)
Description: as §1

[5] = tested on: 22RV1 cells; assay: Apoptosis analysis (Annexin V-PE/DAPI), 22RV1; type: cell-based, human; conditions: 22RV1, compound at its IC50, 24 h
Description: as §2, §3

[6] = tested on: 22RV1 prostate carcinoma cell line; assay: MTT cytotoxicity assay, 22RV1; type: cell-based; conditions: Homo sapiens, 24 h
Excerpt: Accordingly, we aimed to investigate the cytotoxic potential of this new series against prostate carcinoma cell lines. […] The potent nanomolar cell-based activity of this series of compounds over the tested prostate carcinoma cell line could be attributed to other possible targets in addition to EGFR and HER2 receptors. The presence of the 2-nitroimidazole moiety in the chemical structure of compounds 9a–h could develop possible covalent bonds between the nitroimidazole moiety and some cellular proteins.
Prostate cancer cell lines (PC3 and 22RV1) of American Type Culture Collection (ATCC) were obtained from Korean Cell Center (KCL). PC3 and 22RV1 cell lines were cultured in Roswell Park Memorial Institute Medium (RPMI) 1640 and Dulbecco’s modified Eagle’s medium (DMEM) (GenDepot, Barker, TX) supplemented with 1% penicillin–streptomycin and 10% foetal bovine serum (FBS). The cells were maintained at 37 °C in a 5% CO2 with a 95% humid atmosphere.
To further analyse the intracellular cytotoxicity effect of the as-synthesised compounds, MTT assay was performed. Moreover, the experiments were divided into subcategories. In each group, cancer cells were first seeded in 96-well plates (4 × 10^4 cells per well) and then incubated for 24 h at 37 °C in a 5% CO2-containing atmosphere. Subsequently, the medium from the culture plate was removed, and 100 µL of RPMI media containing different concentrations of compounds (0.01, 0.005, 0.0025, 0.00125, and 0.000625 µM) were then added into the cell lines in each well and incubated for 24 h in a 5% CO2 humidified incubator at 37 °C. Afterwards, MTT solution (150 μL, 1 mg/mL) was added to each well, replacing the media-containing compounds. After 4 h of incubation, the MTT reagent was removed, and 200 μL of DMSO was then added to dissolve the formazan crystals, and colour intensity was measured at a wavelength of 540 nm using a BioTek Synergy H1 instrument (BioTek, Winooski, VT). IC50 was calculated according to the equation of Boltzmann sigmoidal concentration–response curve using Graph Pad Prism 5 (La Jolla, CA).

Sequence of EGFR (P00533 25-1210): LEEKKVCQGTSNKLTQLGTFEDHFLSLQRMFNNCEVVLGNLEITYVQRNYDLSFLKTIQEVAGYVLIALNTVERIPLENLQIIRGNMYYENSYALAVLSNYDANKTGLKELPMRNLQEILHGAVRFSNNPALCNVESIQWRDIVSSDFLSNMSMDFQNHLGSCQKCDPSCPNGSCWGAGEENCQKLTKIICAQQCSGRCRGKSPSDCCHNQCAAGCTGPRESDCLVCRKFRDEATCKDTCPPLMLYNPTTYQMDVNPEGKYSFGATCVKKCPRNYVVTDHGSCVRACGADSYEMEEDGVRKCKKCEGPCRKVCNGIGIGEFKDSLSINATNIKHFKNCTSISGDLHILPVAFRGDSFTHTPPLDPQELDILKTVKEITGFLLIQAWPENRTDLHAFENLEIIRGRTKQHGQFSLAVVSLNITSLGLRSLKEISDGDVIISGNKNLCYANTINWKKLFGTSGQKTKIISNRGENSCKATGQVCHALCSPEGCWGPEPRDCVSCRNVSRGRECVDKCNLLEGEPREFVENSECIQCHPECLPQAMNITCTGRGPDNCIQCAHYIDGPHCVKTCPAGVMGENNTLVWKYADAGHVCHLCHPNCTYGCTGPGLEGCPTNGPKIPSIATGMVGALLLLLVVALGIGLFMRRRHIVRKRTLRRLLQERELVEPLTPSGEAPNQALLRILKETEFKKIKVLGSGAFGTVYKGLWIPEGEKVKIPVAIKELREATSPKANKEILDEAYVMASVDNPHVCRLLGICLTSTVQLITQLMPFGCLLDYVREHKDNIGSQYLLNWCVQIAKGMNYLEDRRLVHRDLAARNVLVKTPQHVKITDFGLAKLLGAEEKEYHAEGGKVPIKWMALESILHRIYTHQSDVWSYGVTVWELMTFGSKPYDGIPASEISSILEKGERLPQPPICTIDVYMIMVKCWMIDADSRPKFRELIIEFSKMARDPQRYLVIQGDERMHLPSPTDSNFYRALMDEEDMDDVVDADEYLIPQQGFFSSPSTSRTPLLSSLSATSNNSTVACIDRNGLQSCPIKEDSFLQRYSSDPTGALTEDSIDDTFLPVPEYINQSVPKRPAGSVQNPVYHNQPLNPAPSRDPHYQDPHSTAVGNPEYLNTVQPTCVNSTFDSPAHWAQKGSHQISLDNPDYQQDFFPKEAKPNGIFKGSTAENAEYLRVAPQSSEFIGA
T1 sequence (P08581 25-1390): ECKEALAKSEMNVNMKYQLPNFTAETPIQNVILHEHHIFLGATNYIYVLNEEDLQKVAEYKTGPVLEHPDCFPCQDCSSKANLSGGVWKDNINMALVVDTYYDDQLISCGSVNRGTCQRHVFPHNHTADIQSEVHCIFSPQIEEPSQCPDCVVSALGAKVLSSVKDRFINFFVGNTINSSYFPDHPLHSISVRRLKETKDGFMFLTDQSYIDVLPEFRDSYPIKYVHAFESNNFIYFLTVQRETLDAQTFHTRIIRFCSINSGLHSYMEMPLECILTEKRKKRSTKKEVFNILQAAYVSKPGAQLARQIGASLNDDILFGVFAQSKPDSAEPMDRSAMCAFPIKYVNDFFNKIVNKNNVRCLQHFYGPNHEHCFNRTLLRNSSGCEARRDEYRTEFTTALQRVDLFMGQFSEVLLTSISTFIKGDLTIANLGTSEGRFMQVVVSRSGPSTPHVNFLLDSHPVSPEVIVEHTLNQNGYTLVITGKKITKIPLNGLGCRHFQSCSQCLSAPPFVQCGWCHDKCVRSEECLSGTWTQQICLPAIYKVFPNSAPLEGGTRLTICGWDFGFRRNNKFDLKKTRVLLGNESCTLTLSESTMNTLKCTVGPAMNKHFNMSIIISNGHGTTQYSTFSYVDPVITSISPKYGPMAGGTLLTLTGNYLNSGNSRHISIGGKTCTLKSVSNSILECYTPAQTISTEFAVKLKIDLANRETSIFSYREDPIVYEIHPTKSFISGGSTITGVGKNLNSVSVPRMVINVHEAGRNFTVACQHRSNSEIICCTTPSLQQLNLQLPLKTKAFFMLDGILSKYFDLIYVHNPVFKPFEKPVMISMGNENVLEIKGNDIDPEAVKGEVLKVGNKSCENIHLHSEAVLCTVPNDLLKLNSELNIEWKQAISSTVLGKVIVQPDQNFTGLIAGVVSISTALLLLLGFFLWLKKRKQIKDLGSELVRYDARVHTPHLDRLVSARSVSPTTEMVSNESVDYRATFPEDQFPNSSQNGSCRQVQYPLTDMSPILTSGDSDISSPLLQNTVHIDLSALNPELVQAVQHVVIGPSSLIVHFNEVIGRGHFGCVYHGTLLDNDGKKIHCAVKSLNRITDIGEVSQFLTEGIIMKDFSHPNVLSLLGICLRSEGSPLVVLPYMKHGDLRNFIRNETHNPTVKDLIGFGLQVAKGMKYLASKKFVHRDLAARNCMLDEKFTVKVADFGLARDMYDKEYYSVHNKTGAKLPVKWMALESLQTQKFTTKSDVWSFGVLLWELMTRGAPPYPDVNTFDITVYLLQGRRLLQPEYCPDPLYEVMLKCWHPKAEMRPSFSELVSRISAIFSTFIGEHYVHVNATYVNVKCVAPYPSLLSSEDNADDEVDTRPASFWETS
T2 sequence (Q16539 whole entry): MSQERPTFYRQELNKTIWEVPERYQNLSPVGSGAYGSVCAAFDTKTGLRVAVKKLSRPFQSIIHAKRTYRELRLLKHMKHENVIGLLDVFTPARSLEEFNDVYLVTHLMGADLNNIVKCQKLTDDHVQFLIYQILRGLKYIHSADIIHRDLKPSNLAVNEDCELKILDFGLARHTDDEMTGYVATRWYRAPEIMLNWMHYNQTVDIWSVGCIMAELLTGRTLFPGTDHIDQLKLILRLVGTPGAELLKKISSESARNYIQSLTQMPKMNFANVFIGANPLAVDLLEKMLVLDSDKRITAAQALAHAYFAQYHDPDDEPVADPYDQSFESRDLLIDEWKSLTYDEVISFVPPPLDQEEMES

What does the source list for `COc1cc2ncnc(Nc3ccc(Oc4cccc(C(F)(F)F)c4)c(Cl)c3)c2cc1OCCCCn1ccnc1[N+](=O)[O-]` [Compound 9f, N-(3-Chloro-4-(3-(trifluoromethyl)phenoxy)phenyl)-7-methoxy-6-(4-(2-nitro-1H-imidazol-1-yl)butoxy)quinazolin-4-amine]?
IC50 [1]: 2.3 nM; fold of potency over EGFR compared to TAK-285 ([1]; ratio of IC50 values): 10 fold; fold of potency over EGFR compared to staurosporine ([1]; ratio of IC50 values): 38 fold; inhibition at 10 µM ([1]; read-out: % kinase inhibition EGFR): 99.3%; inhibition at 10 µM [2]: 24.6%; early apoptosis (E.A) [3]: 6.27%; late apoptosis (L.A) [3]: 16.94%; inhibition at 10 µM [4]: 24.3%; early apoptosis (E.A) [5]: 13.20%; late apoptosis (L.A) [5]: 15.38%; IC50 [6]: 2.7 nM
